US20220228120A1, “Cardiomyocyte Compositions and Use Thereof” (UNIVERSITY HEALTH NETWORK, priority 2019, published 2022)

How the values were obtained:
Format in all cases: cell-based, human
[1] = test system: hPSC-derived compact cardiomyocytes; test: Seahorse XF FAO Cell Mito stress test (OCR), compact cardiomyocytes; details: ETO 40 μM, mature cells
hPSC-derived atrial CMs = test: Seahorse FAO Cell Mito stress test (OCR), atrial CMs; details: ETO 40 μM
mature and immature CMs [2] = test: In vitro pathological stimuli model: Nile Red lipid accumulation; details: treated populations
Experimental: To quantify the lipid droplets, Cayman's Lipid Droplets Fluorescence Assay Kit (Cayman) was used. After the EBs were dissociated as described above, cells were fixed by Fixative Solution for 10 mins at room temperature. Cells were washed with Assay Buffer and stained with the Nile Red Staining Solution at room temperature for 15 mins. Cells were washed with Assay Buffer and analyzed with filter sets to detect FITC using the LSR II Flow cytometer (BD PharMingen™). Data were analyzed using FlowJo™ software (Tree Star).
(§1) To induce a pathological response in the mature CMs, we cultured them in the presence of isoproterenol (100 μM), a small molecule adrenergic agonist in a hypoxic (5% O2) environment, in low glucose containing medium with Palmitate (200 μM) for 6 days (FIG. 8B). Immature control cells were treated under the same conditions. […] (FIG. 8C). To assess the glycolytic flux in these cells, we measured the extracellular acidification rate (ECAR) as an index of glycolytic activity using the Seahorse™ XF assay (Mookerjee and Brand. J Vis Exp. (2015) e53464).

mature and immature CMs [3] = test: In vitro pathological stimuli model: CASP9 expression and Annexin V apoptosis assay
Experimental: After the culture in the pathological condition for 6 days, the EBs were dissociated as described above. To detect the apoptosis following the pathological stimuli, TACS® Annexin V assay (TREVIGEN) was performed by flowcytometry. Cells were washed with PBS and stained with Annexin V-FITC for 15 mins at room temperature. Add Binding Buffer to samples and process by flowcytometry. Stained cells were analyzed using the LSR II Flow cytometer (BD). Data were analyzed using FlowJo™ software (Tree Star).
as §1

mature compact CMs [4] = test: In vitro pathological stimuli model: ECAR by Seahorse XF glycolysis assay
Experimental: For the Seahorse™ XF FAO assay, a few EBs were plated onto an XFe24 cell culture microplate coated by Matrigel™ 48 hours prior to the assay. 24 hours prior to the assay, replace the culture medium with substrate-limited medium containing 0.5 mM glucose (Sigma), 1.0 mM Glutamine (Life technology), 0.5 mM Carnitine (Sigma), and 1% Fetal Bovine Serum (Wisent) in DMEM no glucose medium (ThermoFisher). 45 mins prior to the assay, wash the cells two times with FAO assay medium, add 375 μl/well FAO assay medium to the cells and incubate for 45 mins at 37 C. Load the assay cartridge with Seahorse™ XF Cell Mito Stress Test compounds (2 μM oligomycin, 5 μM FCCP, 0.5 μM rotenone/0.5 μM antimycin A). […] After the measurement of OCR, EBs are dissociated and counted the cell number in each well. […] After the measurement of ECAR, EBs are dissociated and counted the cell number in each well. […]
To induce a pathological response in the mature CMs, we cultured them in the presence of isoproterenol (100 μM), a small molecule adrenergic agonist in a hypoxic (5% O2) environment, in low glucose containing medium with Palmitate (200 μM) for 6 days (FIG. 8B). […] To assess the glycolytic flux in these cells, we measured the extracellular acidification rate (ECAR) as an index of glycolytic activity using the Seahorse™ XF assay (Mookerjee and Brand. J Vis Exp. (2015) e53464).

mature compact CMs [5] = test: In vitro pathological stimuli model (hypoxia+ISO): RT-qPCR
Experimental: Total RNA from samples was isolated using RNAqueous™-micro Kit including RNase-free DNase treatment (invitrogen). RNA from dissected ventricular and atrial tissue of human fetal hearts was isolated using the TRIzol® method (ThermoFisher) and treated with DNase (Ambion®). Isolated RNA was reverse transcribed into cDNA using oligo (dT) primers and random hexamers and iScript™ Reverse Transcriptase (ThermoFisher). QRT-PCR was performed on an EP Real-Plex MasterCycler® (Eppendorf®) using QuantiFast® SYBR Green PCR kit (QIAGEN). The copy number of each gene relative to the house keeping gene TBP.
as §1

For `CCOC(=O)[C@@]1(CCCCCCOc2ccc(Cl)cc2)CO1` [ETO, etomoxir], the mitochondrial oxidation [1] was “blocked” and the “mitochondrial oxidation, atrial CMs” value (hPSC-derived atrial CMs) was “blocked”.
With `CC(C)NCC(O)c1ccc(O)c(O)c1` (stereo not shown) [isoproterenol] the “lipid accumulation (Nile red)” value (mature and immature CMs [2]) was “increases”, the “apoptosis (CASP9, Annexin V^+ cells)” value (mature and immature CMs [3]; immature population) was “not in the immature population” and the “apoptosis (CASP9, Annexin V^+ cells)” value (mature and immature CMs [3]; mature population) was “induced apoptosis”. For the same compound, the “glycolytic activity (ECAR)” value (mature compact CMs [4]; isoproterenol 100 μM, 5% O2, 6 days, mature CMs) was “significantly upregulated”, the “expression of glycolysis-related genes GLUT1, GAPDH and LDHA” value (mature compact CMs [5]; isoproterenol 100 μM, 5% O2, low glucose with Palmitate 200 μM, 6 days, mature CMs) was “upregulation” and the “expression of CD36, GPD1 and PLIN2” value (mature compact CMs [5]; mature CMs under the pathological stimuli) was “upregulated”. For the same compound, the “expression of hormone sensitive lipase HSL” value (mature compact CMs [5]; treated mature CMs) was “downregulated”.
In the case of `O=CC[C@@H](O)[C@H](O)[C@H](O)CO` [2-DG, 2-deoxy-glucose], the ECAR following injection (mature compact CMs [4]; mature CMs exposed to the pathological stimuli, 2-DG 100 mM) is reported as “rapid decrease”.
